# Laboratory results taken from patent publication US6827926B2, “Metallotetrapyrrolic photosensitizing agents for use in photodynamic therapy” (Miravant Pharmaceuticals, Inc., priority 2001, dated 2004).
# Test system: V79 (Chinese Hamster Lung Fibroblasts) cells
# Test: In vitro cytotoxicity assay (light EC50, Alamar blue)
# Type: cell-based
# Conditions: Table 3 porphyrins, 24 h drug incubation, 532 nm, 1.25 J/cm^2, read-out: In Vitro EC50 Light
# Method: The in vitro biological evaluation of photosensitizers for their ability to photosensitize cells was performed using standard procedures. Using 5% FBS/DMEM phenol-free media, wells (180 μl/well) were plated with 5×10^4 V79 (Chinese Hamster Lung Fibroblasts) cells/ml into two 96 well plates. Plate 1 was light-treated and plate 2 served as a control. The plates were Incubated at 37° C., 5% CO2 for 3-5 hours. Standard solutions of the photosensitizers were dissolved in pre-filtered Dimethyl Sulfoxide (DMSO). Drug was diluted in 5% FBS DMEM phenol free medium. Final drug concentrations for light and dark experiments were 0.01, 0.1, 1.0, 3.0 and 5.0 μM. Twenty microliters of each concentration were added to six replicate wells to the light and dark plate. The plates were wrapped in aluminum foil to avoid photoactivation and mixed in a gyratory shaker for approximately 2 minutes. Both plates were incubated for 24 hours at 37° C., 5% CO2. After a 24 hour incubation, drug-containing media was aspirated from the plates. Each well was rinsed with 180 μl Hepes buffer salt solution (HBSS) then aspirated to remove the HBSS. 180 μl of fresh media were added (5% FBS/DMEM phenol-free) to each well. […] Plate 2 was not light treated. Immediately after light treatment, 20 μl Alamar blue was added to each well in plate 1. Alamar blue was added to plate 2 immediately after fresh media was added. The plates were mixed on a gyratory shaker for 5 min.
# Both plates were incubated under dark conditions for 24 hours at 37° C., 5% CO2. After 24 hour incubation, the plates were read on a plate reader spectrophotometer (Spectra Max 250) at wavelengths 570 and 600 nm. and the percentage of cell survival recorded.
row,Compound,EC50
1,"CNC(=O)CCC1=C(C)C2=Cc3cc(C)c4[n]3[Ga-2]35([Cl])[n]6c(c(C)c(CCC(=O)NC)c6=CC1=[N+]23)=CC1=[N+]5C(=C4)C=C1C [Example 6, Gallium Chloride Deuteroporphyrin Methylamide]",4.05 µM
2,"CCC1=C(C)C2=[N+]3C1=Cc1c(C)c(CC)c4[n]1[Ga-2]31([Cl])[n]3c(c(C)c(CCC(=O)NCCOCCO)c3=CC3=[N+]1C(=C4)C(C)=C3CCC(=O)NCCOCCO)=C2 [Example 16, Gallium Chloride Mesoporphyrin 2-ethoxyethanol amide]",2.9 µM
3,"CCC1=C(C)C2=[N+]3C1=Cc1c(C)c(CC)c4[n]1[Al-2]31([Cl])[n]3c(c(C)c(CCC(=O)NC)c3=CC3=[N+]1C(=C4)C(C)=C3CCC(=O)NC)=C2 [Example 61, Aluminum Chloride Mesoporphyrin N-methylamide]",2 µM
4,"CCC1=C(C)C2=[N+]3C1=Cc1c(C)c(CC)c4[n]1[Pt-2]31[n]3c(c(C)c(CCC(=O)NCCOC)c3=CC3=[N+]1C(=C4)C(C)=C3CCC(=O)NCCOC)=C2 (stereo not shown) [Example 65, Platinum Mesoporphyrin di(2-methoxyethylamide)]",0.05 µM
5,"CCC1=C(C)c2cc3[n-]c(cc4nc(cc5[n-]c(cc1n2)c(C)c5CC)C(C)=C4CCC(=O)NCCCO)c(CCC(=O)NCCCO)c3C.[Pt+2] [Example 67, Platinum Mesoporphyrin di(3-hydroxypropylamide)]",0.1 µM
6,"CC1=CC2=Cc3c(C)cc4[n]3[Ga-2]35([Cl])[n]6c(c(C)c(CCC(=O)NCCCO)c6=CC6=[N+]3C(=C4)C(C)=C6CCC(=O)NCCCO)=CC1=[N+]25 [Example 68, Gallium Chloride Deuteroporphyrin di(3-hydroxypropylamide)]",3 µM
7,"CCOP(=O)(CCCC1=C(C)c2cc3cc(C)c(cc4nc(cc5[n-]c(cc1n2)c(CCCP(=O)(OCC)OCC)c5C)C(C)=C4)[n-]3)OCC.[Cl-].[Ga+3] [Example 80, Gallium Chloride 3,7,12,17-tetramethylporphyrin-2,18-di((3′-diethylphosphono)propyl)]",2 µM
8,CCC1=C(C)C2=Cc3c(CC)c(C)c4[n]3[Ga-2]35([Cl])[n]6c(c(C)c(CCCOCCOC)c6=CC6=[N+]3C(=C4)C(C)=C6CCCOCCOC)=CC1=[N+]25 [M=Ga R1=Et R3=Me R4=Et R2=CH2O(CH2)2OCH3],0.43 µM
9,CCC1=C(C)C2=Cc3c(CC)c(C)c4[n]3[Ga-2]35([Cl])[n]6c(c(C)c(CCCOCCO)c6=CC6=[N+]3C(=C4)C(C)=C6CCCOCCO)=CC1=[N+]25 [M=Ga R1=Et R3=Me R4=Et R2=CH2O(CH2)2OH],0.5 µM

# Same assay, conditions: Table 4 azaporphyrins, 575 nm (Pt azaporphyrins 532 nm), 1.25 J/cm^2, read-out: In Vitro EC(50)
row,Compound,EC50
1,"COC(=O)CCC1=C(C)C2=Cc3c(C)c(C(C)OC)c4[n]3[Ga-2]35([Cl])[n]6c(c(C)c(CCC(=O)OC)c6=CC1=[N+]23)=CC1=[N+]5C(=N4)C(C)=C1C(C)OC (mixture of isomers) [M=Ga R1,R3=Me R2,R4=CH(OMe)CH3 R=CO2Me]",1 µM
2,"CCC1=C(C)c2nc1cc1[n-]c(cc3nc(cc4[n-]c(n2)c(C)c4CCC(=O)OC)C(CCC(=O)OC)=C3C)c(CC)c1C.[Cl-].[Ga+3] [Example 20, Gallium Chloride 5-azamesoporphyrin IX Dimethyl Ester]",0.4 µM
3,"CCC1=C(CC)C2=[N+]3C1=Nc1c(CC)c(CC)c4[n]1[Pt-2]31[n]3c(c(C)c(CCC(=O)OC)c3=CC3=[N+]1C(=C4)C(C)=C3CCC(=O)OC)=C2 (stereo not shown) [Example 85, Platinum 7,8,12,13-tetraethyl-12,17-dimethyl-10-azaporphyrin-2,18-di(propionic acid methyl ester)]",4 µM
4,"CCC1=C(CC)C2=[N+]3C1=Nc1c(CC)c(CC)c4[n]1[Pt-2]31[n]3c(c(C)c(CCC(=O)O)c3=CC3=[N+]1C(=C4)C(C)=C3CCC(=O)O)=C2.[K+].[K+] (stereo not shown) [Example 86, Platinum 7,8,12,13-tetraethyl-12,17-dimethyl-10-azaporphyrin-2,18-di(propionic acid Potassium Salt)]",0.4 µM
5,"CCC1=C(CC)C2=[N+]3C1=Nc1c(CC)c(CC)c4[n]1[Ga-2]31([OH])[n]3c(c(C)c(CCC(=O)O)c3=CC3=[N+]1C(=C4)C(C)=C3CCC(=O)O)=C2.[Na+].[Na+] [Example 88, Gallium Hydroxy 7,8,12,13-tetraethyl-12,17-dimethyl-10-azaporphyrin-2,18-di(propionic acid Sodium Salt)]",0.5 µM
6,"CCC1=C(CC)C2=Nc3c(CC)c(CC)c4[n]3[Pt][n]3c(c(C)c(CCC(=O)NC)c3=CC3=NC(=C4)C(C)=C3CCC(=O)NC)=CC1=N2 [Example 92, Platinum 7,8,12,13-tetraethyl-12,17-dimethyl-10-azaporphyrin-2,18-di(propionic acid methyl amide)]",2.3 µM
7,"CCC1=C(CC)C2=Nc3c(CC)c(CC)c4[n]3[Al]([Cl])[n]3c(c(C)c(CCC(=O)NC)c3=CC3=NC(=C4)C(C)=C3CCC(=O)NC)=CC1=N2 [Example 93, Aluminum Chloride 7,8,12,13-tetraethyl-12,17-dimethyl-10-azaporphyrin-2,18-di(propionic acid methyl amide)]",0.1 µM
8,"CCC1=C(C)C2=NC1=Nc1c(C)c(CC)c3[n]1[Ga]([Cl])[n]1c(c(C)c(CCC(=O)NC)c1=CC1=NC(=C3)C(C)=C1CCC(=O)NC)=C2 [Example 94, Gallium Chloride 5-aza-mesoporphyrin IX Dimethyl Amide]",0.52 µM
9,"CCC1=C(CC)C2=Nc3c(CC)c(CC)c4[n]3[Ga]([Cl])[n]3c(c(C)c(CCC(=O)NCCOC)c3=CC3=NC(=C4)C(C)=C3CCC(=O)NCCOC)=CC1=N2 [Example 95, Gallium Chloride 7,8,12,13-tetraethyl-12,17-dimethyl-10-azaporphyrin-2,18-di(propionic acid 2′-methoxyethyl amide)]",2 µM
10,"CCC1=C(CC)C2=Nc3c(CC)c(CC)c4[n]3[Pt][n]3c(c(C)c(CCC(=O)NCCOC)c3=CC3=NC(=C4)C(C)=C3CCC(=O)NCCOC)=CC1=N2 [Example 96, Platinum 7,8,12,13-tetraethyl-12,17-dimethyl-10-azaporphyrin-2,18-di(propionic acid-2′-methoxyethyl amide)]",1.9 µM
11,"CCC1=C(CC)C2=Nc3c(CC)c(CC)c4[n]3[Pt][n]3c(c(C)c(CCC(=O)NCCCO)c3=CC3=NC(=C4)C(C)=C3CCC(=O)NCCCO)=CC1=N2 [Example 98, Platinum 7,8,12,13-tetraethyl-12,17-dimethyl-10-azaporphyrin-2,18-di(propionic acid-3′-hydroxypropyl amide amide)]",2 µM
12,"CCC1=C(C)c2nc1cc1[n-]c(cc3nc(cc4[n-]c(n2)c(C)c4CCC(=O)NCCCO)C(CCC(=O)NCCCO)=C3C)c(CC)c1C.[Cl-].[Ga+3] [Example 99, Gallium Chloride 5-azamesoporphyrin IX di(3′-hydroxypropyl amide)]",0.5 µM
13,"CCC1=C(CC)C2=Nc3c(CC)c(CC)c4[n]3[Ga]([Cl])[n]3c(c(C)c(CCC(=O)NCCOCCO)c3=CC3=NC(=C4)C(C)=C3CCC(=O)NCCOCCO)=CC1=N2 [Example 100, Gallium Chloride 7,8,12,13-tetraethyl-12,17-dimethyl-10-azaporphyrin-2,18-di(propionic acid-2-ethoxyethanol amide)]",1.3 µM
14,"CCC1=C(CC)C2=Nc3c(CC)c(CC)c4[n]3[Pt][n]3c(c(C)c(CCC(=O)NCCOCCO)c3=CC3=NC(=C4)C(C)=C3CCC(=O)NCCOCCO)=CC1=N2 [Example 101, Platinum 7,8,12,13-tetraethyl-12,17-dimethyl-10-azaporphyrin-2,18-di(propionic acid-2-ethoxyethanol amide)]",1.5 µM
15,"CCC1=C(CC)C2=Nc3c(CC)c(CC)c4[n]3[Pt][n]3c(c(C)c(CCC(=O)NCCN(C)C)c3=CC3=NC(=C4)C(C)=C3CCC(=O)NCCN(C)C)=CC1=N2 [Example 103, Platinum 7,8,12,13-tetraethyl-12,17-dimethyl-10-azaporphyrin-2,18-di(propionic acid-2′-N,N-dimethylaminoethyl amide)]",1.2 µM
16,"CCC1=C(CC)C2=Nc3c(CC)c(CC)c4[n]3[In]([Cl])[n]3c(c(C)c(CCCO)c3=CC3=NC(=C4)C(C)=C3CCCO)=CC1=N2 [Example 104, Indium Chloride 7,8,12,13-tetraethyl-12,17-dimethyl-10-azaporphyrin-2,18-di(3′-hyroxypropyl)]",0.03 µM
17,"CCC1=C(CC)C2=Nc3c(CC)c(CC)c4[n]3[Pt][n]3c(c(C)c(CCCO)c3=CC3=NC(=C4)C(C)=C3CCCO)=CC1=N2 [Example 105, Platinum 7,8,12,13-tetraethyl-12,17-dimethyl-10-azaporphyrin-2,18-di(3′-hyroxypropyl)]",0.04 µM
18,"CCC1=C(CC)c2nc1cc1[n-]c(cc3nc(cc4[n-]c(n2)c(CC)c4CC)C(C)=C3CCCOC)c(CCCOC)c1C.[Cl-].[Ga+3] [Example 106, Gallium Chloride 7,8,12,13-tetraethyl-12,17-dimethyl-10-azaporphyrin-2,18-di(3′-methoxypropyl)]",1 µM

# Same assay, conditions: light EC50, metallodiazaporphyrins, read-out: In Vitro EC(50)
row,Compound,EC50
1,"CCC1=C(CC)C2=[N+]3C1=Nc1c(CC)c(CC)c4[n]1[Ga-2]31([Cl])[n]3c(c(CC)c(CC)c3=C2c2ccc(OC)cc2)=NC2=[N+]1C(=C4c1ccc(OC)cc1)C(CC)=C2CC [M=Ga, R1=Et, R2=Et, R3=p-(C6H4)OCH3]",0.6 µM
